Key:
Assay type in all cases: in vivo
DOPJU = assay: Herbicidal damage to weed DOPJU (Table B2); conditions: application rate 50 g/ha
Description: (§1) To produce a preparation of active compound, 1 part by weight of an active compound combination according to the invention is mixed with the stated amount of solvent and, after addition of the stated amount of the emulsifier, diluted with water to the desired concentration.
(§2) Vessels for planting (500 cm^2) are filled with soil from a rice field, and in each case 3 rice plants (cultivar: Nipponbare, 2-3-leaf stage, height: about 15 cm) are planted into the middle of vessels for planting. Into the same vessels for planting, seeds are sown. The soil in the vessels is kept moist. After two days, each vessel for planting is flooded to a water depth of 2-3 cm.
(§3) Five days after the rice plants were transplanted, the amount of active compound is, in the preparation described above, applied to the surface of the water in the vessels for planting using a pipette. The water depth in the vessels for planting is maintained at 2-3 cm.
(§4) 3 weeks after the application of active compound, the efficacy is rated in % damage in comparison to the untreated control.
(§5) Active compounds, application rates and results are shown in Table A1 below, the abbreviations used in the table having the following meanings: • (I-65) N-[2,6-dichloro-3-[2,6-dioxocyclohexyl)-carbonyl]-phenyl]pyrrolidone-1-carboxamide • (I-2) N′-[2,6-dichloro-3-[(2,6-dioxo-cyclohexyl)-carbonyl]-phenyl]-N-methoxy-N-methyl-urea • (A) fentrazamide

Lindernia pyxidari = assay: Greenhouse test in transplanted paddy rice: herbicidal damage to weed; conditions: applied to water surface, rated 3 weeks after application vs untreated control
Description: as §1, §2, §3, §4, §5

[1] = test system: rice plants (cultivar: Nipponbare); assay: Greenhouse test in transplanted paddy rice: crop damage; conditions: rated 3 weeks after application
Description: as §1, §2, §3, §4, §5

ROT/N = assay: Herbicidal damage to weed ROT/N (Tables B1, B3); conditions: application rate 50 g/ha

CCN(C(=O)n1nnn(-c2ccccc2Cl)c1=O)C1CCCCC1 [(A), 4-(2-chloro-phenyl)-N-cyclohexyl-N-ethyl-4,5-dihydro-5-oxo-1H-tetrazol-1-carboxamide]
Damage (to DOPJU) (%) (DOPJU): 50%
Damage to Lindernia pyxidari (%) (Lindernia pyxidari; application rate 150 g/ha): 70%
Damage to rice (%) ([1]; application rate 150 g/ha): 0%
Damage (to ROT/N) (%) (ROT/N; Table B1): 60%

CCC1(CC2(c3cccc(Cl)c3)CO2)C(=O)c2ccccc2C1=O (stereo not shown) [B, 2-[2-(3-chloro-phenyl)-oxiranyl-methyl]-2-ethyl-1H-indene-1,3 (2H)-dione]
Damage (to ROT/N) (%) (ROT/N; Table B3): 2%

CON(C)C(=O)Nc1c(Cl)ccc(C(=O)C2C(=O)CCCC2=O)c1Cl [Example I-2, N′-[2,6-dichloro-3-[(2,6-dioxo-cyclohexyl)-carbonyl]-phenyl]-N-methoxy-N-methyl-urea]
Damage to Lindernia pyxidari (%) (Lindernia pyxidari; application rate 200 g/ha): 60%
Damage to rice (%) ([1]; application rate 200 g/ha): 0%
